# Test results as given in PubChem BioAssay (NCI).
#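 Growth conditions: 96-well plates. Treatment: test compound, 48 hours, 5 concentrations. Analysis: linear interpolation between bracketing concentrations; unreached endpoints set to highest concentration. At the TGI there is no net growth.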
# Legend:
# Assay in all cases: NCI-60 cell line screen, 48 h
# SNB-19 CNS = test system: SNB-19 CNS
# HCT-15 colon = test system: HCT-15 colon
# NCI-H23 lung = test system: NCI-H23 lung
# SK-MEL-28 melanoma = test system: SK-MEL-28 melanoma
# PC-3 prostate = test system: PC-3 prostate
# NCI-H522 lung = test system: NCI-H522 lung
# ACHN renal = test system: ACHN renal
# OVCAR-3 ovarian = test system: OVCAR-3 ovarian
# OVCAR-5 ovarian = test system: OVCAR-5 ovarian
# OVCAR-8 ovarian = test system: OVCAR-8 ovarian
# MALME-3M melanoma = test system: MALME-3M melanoma
# K-562 leukemia = test system: K-562 leukemia
# CCRF-CEM leukemia = test system: CCRF-CEM leukemia
# RPMI-8226 leukemia = test system: RPMI-8226 leukemia
# KM12 colon = test system: KM12 colon
# SNB-75 CNS = test system: SNB-75 CNS
# 786-0 renal = test system: 786-0 renal
# MDA-MB-231 breast = test system: MDA-MB-231 breast
# MDA-N = test system: MDA-N
# CAKI-1 renal = test system: CAKI-1 renal
# UACC-257 melanoma = test system: UACC-257 melanoma
# HT29 colon = test system: HT29 colon
# BT-549 breast = test system: BT-549 breast
# COLO 205 colon = test system: COLO 205 colon
# RXF 393 renal = test system: RXF 393 renal
# HCT-116 colon = test system: HCT-116 colon
# SF-295 CNS = test system: SF-295 CNS
# SW-620 colon = test system: SW-620 colon
# SK-OV-3 ovarian = test system: SK-OV-3 ovarian
# MDA-MB-435 = test system: MDA-MB-435
# SF-268 CNS = test system: SF-268 CNS
# SR leukemia = test system: SR leukemia
# DU-145 prostate = test system: DU-145 prostate
# NCI-H460 lung = test system: NCI-H460 lung
# MCF7 breast = test system: MCF7 breast
# NCI/ADR-RES ovarian = test system: NCI/ADR-RES ovarian
# HCC-2998 colon = test system: HCC-2998 colon
# TK-10 renal = test system: TK-10 renal
# HS 578T breast = test system: HS 578T breast
# SK-MEL-5 melanoma = test system: SK-MEL-5 melanoma
# UO-31 renal = test system: UO-31 renal
# A498 renal = test system: A498 renal
# IGROV1 ovarian = test system: IGROV1 ovarian
# MOLT-4 leukemia = test system: MOLT-4 leukemia
# M14 melanoma = test system: M14 melanoma
# HOP-62 NSCLC = test system: HOP-62 NSCLC
# HOP-92 NSCLC = test system: HOP-92 NSCLC
# HL-60(TB) leukemia = test system: HL-60(TB) leukemia
# A549 NSCLC = test system: A549 NSCLC
# U251 CNS = test system: U251 CNS
# NCI-H226 lung = test system: NCI-H226 lung
# UACC-62 melanoma = test system: UACC-62 melanoma
# LOX IMVI melanoma = test system: LOX IMVI melanoma
# EKVX NSCLC = test system: EKVX NSCLC
# SF-539 CNS = test system: SF-539 CNS
# SN12C renal = test system: SN12C renal
# OVCAR-4 ovarian = test system: OVCAR-4 ovarian
# T-47D breast = test system: T-47D breast
# SK-MEL-2 melanoma = test system: SK-MEL-2 melanoma
structure (smiles),measurement,setting,value
Cc1cs/c(=N\C(P(=O)(O)O)P(=O)(O)O)n1C,TGI,SNB-19 CNS,> 100 µM
same,TGI,HCT-15 colon,> 100 µM
same,TGI,NCI-H23 lung,> 100 µM
same,TGI,SK-MEL-28 melanoma,> 100 µM
same,TGI,PC-3 prostate,> 100 µM
same,TGI,NCI-H522 lung,> 100 µM
same,TGI,ACHN renal,> 100 µM
same,TGI,OVCAR-3 ovarian,> 100 µM
same,TGI,OVCAR-5 ovarian,> 100 µM
same,TGI,OVCAR-8 ovarian,> 100 µM
same,TGI,MALME-3M melanoma,> 100 µM
same,TGI,K-562 leukemia,> 100 µM
same,TGI,CCRF-CEM leukemia,> 100 µM
same,TGI,RPMI-8226 leukemia,> 100 µM
same,TGI,KM12 colon,> 100 µM
same,TGI,SNB-75 CNS,> 100 µM
same,TGI,786-0 renal,> 100 µM
same,TGI,MDA-MB-231 breast,> 100 µM
same,TGI,MDA-N,> 100 µM
same,TGI,CAKI-1 renal,> 100 µM
same,TGI,UACC-257 melanoma,> 100 µM
same,TGI,HT29 colon,> 100 µM
same,TGI,BT-549 breast,> 100 µM
same,TGI,COLO 205 colon,> 100 µM
same,TGI,RXF 393 renal,> 100 µM
same,TGI,HCT-116 colon,> 100 µM
same,TGI,SF-295 CNS,> 100 µM
same,TGI,SW-620 colon,> 100 µM
same,TGI,SK-OV-3 ovarian,> 100 µM
same,TGI,MDA-MB-435,> 100 µM
same,TGI,SF-268 CNS,> 100 µM
same,TGI,SR leukemia,> 100 µM
same,TGI,DU-145 prostate,> 100 µM
same,TGI,NCI-H460 lung,> 100 µM
same,TGI,MCF7 breast,> 100 µM
same,TGI,NCI/ADR-RES ovarian,> 100 µM
same,TGI,HCC-2998 colon,> 100 µM
same,TGI,TK-10 renal,> 100 µM
same,TGI,HS 578T breast,47.8 µM
same,TGI,SK-MEL-5 melanoma,> 100 µM
same,TGI,UO-31 renal,> 100 µM
same,TGI,A498 renal,> 100 µM
same,TGI,IGROV1 ovarian,> 100 µM
same,TGI,MOLT-4 leukemia,> 100 µM
same,TGI,M14 melanoma,> 100 µM
same,TGI,HOP-62 NSCLC,> 100 µM
same,TGI,HOP-92 NSCLC,> 100 µM
same,TGI,HL-60(TB) leukemia,> 100 µM
same,TGI,A549 NSCLC,> 100 µM
same,TGI,U251 CNS,> 100 µM
same,TGI,NCI-H226 lung,> 100 µM
same,TGI,UACC-62 melanoma,> 100 µM
same,TGI,LOX IMVI melanoma,> 100 µM
same,TGI,EKVX NSCLC,> 100 µM
same,TGI,SF-539 CNS,> 100 µM
Cc1cnc(Cl)nc1C(C#N)c1nc2ccccc2n1C (centres undefined),TGI,SNB-19 CNS,> 100 µM
same,TGI,HCT-15 colon,> 100 µM
same,TGI,NCI-H23 lung,> 100 µM
same,TGI,SK-MEL-28 melanoma,> 100 µM
same,TGI,NCI-H522 lung,43.4 µM
same,TGI,SN12C renal,> 100 µM
same,TGI,ACHN renal,> 100 µM
same,TGI,OVCAR-3 ovarian,> 100 µM
same,TGI,OVCAR-5 ovarian,> 100 µM
same,TGI,OVCAR-8 ovarian,> 100 µM
same,TGI,OVCAR-4 ovarian,> 100 µM
same,TGI,MALME-3M melanoma,> 100 µM
same,TGI,T-47D breast,> 100 µM
same,TGI,RPMI-8226 leukemia,> 100 µM
same,TGI,KM12 colon,> 100 µM
same,TGI,SNB-75 CNS,69.3 µM
same,TGI,786-0 renal,> 100 µM
same,TGI,MDA-MB-231 breast,> 100 µM
same,TGI,MDA-N,> 100 µM
same,TGI,CAKI-1 renal,> 100 µM
same,TGI,UACC-257 melanoma,> 100 µM
same,TGI,HT29 colon,> 100 µM
same,TGI,BT-549 breast,> 100 µM
same,TGI,COLO 205 colon,> 100 µM
same,TGI,RXF 393 renal,> 100 µM
same,TGI,HCT-116 colon,51.2 µM
same,TGI,SF-295 CNS,> 100 µM
same,TGI,SW-620 colon,> 100 µM
same,TGI,SK-OV-3 ovarian,> 100 µM
same,TGI,MDA-MB-435,> 100 µM
same,TGI,SF-268 CNS,> 100 µM
same,TGI,DU-145 prostate,> 100 µM
same,TGI,NCI-H460 lung,> 100 µM
same,TGI,NCI/ADR-RES ovarian,> 100 µM
same,TGI,TK-10 renal,> 100 µM
same,TGI,SK-MEL-5 melanoma,> 100 µM
same,TGI,UO-31 renal,> 100 µM
same,TGI,A498 renal,> 100 µM
same,TGI,IGROV1 ovarian,> 100 µM
same,TGI,MOLT-4 leukemia,> 100 µM
same,TGI,M14 melanoma,> 100 µM
same,TGI,HOP-62 NSCLC,> 100 µM
same,TGI,HOP-92 NSCLC,> 100 µM
same,TGI,A549 NSCLC,> 100 µM
same,TGI,U251 CNS,45.5 µM
same,TGI,NCI-H226 lung,> 100 µM
same,TGI,LOX IMVI melanoma,> 100 µM
same,TGI,EKVX NSCLC,57.1 µM
same,TGI,SF-539 CNS,71.3 µM
COc1cc(OC)c(CSCC(NC(=O)OCC2c3ccccc3-c3ccccc32)C(=O)O)c(OC)c1 (centres undefined),TGI,SNB-19 CNS,> 10 µM
same,TGI,HCT-15 colon,> 10 µM
same,TGI,NCI-H23 lung,> 10 µM
same,TGI,SK-MEL-28 melanoma,> 10 µM
same,TGI,PC-3 prostate,> 10 µM
same,TGI,SN12C renal,> 10 µM
same,TGI,ACHN renal,> 10 µM
same,TGI,OVCAR-3 ovarian,> 10 µM
same,TGI,OVCAR-5 ovarian,> 10 µM
same,TGI,OVCAR-8 ovarian,> 10 µM
same,TGI,OVCAR-4 ovarian,> 10 µM
same,TGI,KM12 colon,> 10 µM
same,TGI,SNB-75 CNS,> 10 µM
same,TGI,MDA-MB-231 breast,> 10 µM
same,TGI,MDA-N,> 10 µM
same,TGI,CAKI-1 renal,> 10 µM
same,TGI,HT29 colon,> 10 µM
same,TGI,COLO 205 colon,> 10 µM
same,TGI,RXF 393 renal,> 10 µM
same,TGI,HCT-116 colon,> 10 µM
same,TGI,SF-295 CNS,> 10 µM
same,TGI,SW-620 colon,> 10 µM
same,TGI,MDA-MB-435,> 10 µM
same,TGI,SF-268 CNS,> 10 µM
same,TGI,DU-145 prostate,> 10 µM
same,TGI,NCI/ADR-RES ovarian,> 10 µM
same,TGI,TK-10 renal,> 10 µM
same,TGI,SK-MEL-5 melanoma,> 10 µM
same,TGI,UO-31 renal,> 10 µM
same,TGI,A498 renal,> 10 µM
same,TGI,IGROV1 ovarian,> 10 µM
same,TGI,M14 melanoma,> 10 µM
same,TGI,HOP-92 NSCLC,> 10 µM
same,TGI,A549 NSCLC,> 10 µM
same,TGI,U251 CNS,> 10 µM
same,TGI,NCI-H226 lung,> 10 µM
same,TGI,EKVX NSCLC,> 10 µM
same,TGI,SF-539 CNS,> 10 µM
Cc1ccc(S(=O)(=O)Nn2c(-c3ccccc3)c(C#N)c(-c3ccc([N+](=O)[O-])cc3)c(C#N)c2=O)cc1,TGI,SNB-19 CNS,> 100 µM
same,TGI,HCT-15 colon,> 100 µM
same,TGI,SK-MEL-28 melanoma,> 100 µM
same,TGI,PC-3 prostate,> 100 µM
same,TGI,NCI-H522 lung,> 100 µM
same,TGI,SN12C renal,> 100 µM
same,TGI,ACHN renal,> 100 µM
same,TGI,OVCAR-5 ovarian,> 100 µM
same,TGI,OVCAR-8 ovarian,> 100 µM
same,TGI,OVCAR-4 ovarian,> 100 µM
same,TGI,MALME-3M melanoma,> 100 µM
same,TGI,CCRF-CEM leukemia,> 100 µM
same,TGI,RPMI-8226 leukemia,64.3 µM
same,TGI,KM12 colon,> 100 µM
same,TGI,SNB-75 CNS,> 100 µM
same,TGI,786-0 renal,> 100 µM
same,TGI,MDA-MB-231 breast,> 100 µM
same,TGI,MDA-N,> 100 µM
same,TGI,CAKI-1 renal,> 100 µM
same,TGI,UACC-257 melanoma,> 100 µM
same,TGI,HT29 colon,> 100 µM
same,TGI,BT-549 breast,> 100 µM
same,TGI,COLO 205 colon,> 100 µM
same,TGI,RXF 393 renal,> 100 µM
same,TGI,HCT-116 colon,> 100 µM
same,TGI,SF-295 CNS,> 100 µM
same,TGI,SW-620 colon,> 100 µM
same,TGI,SK-OV-3 ovarian,> 100 µM
same,TGI,MDA-MB-435,> 100 µM
same,TGI,SF-268 CNS,> 100 µM
same,TGI,NCI-H460 lung,> 100 µM
same,TGI,SK-MEL-2 melanoma,> 100 µM
same,TGI,MCF7 breast,> 100 µM
same,TGI,NCI/ADR-RES ovarian,> 100 µM
same,TGI,HCC-2998 colon,> 100 µM
same,TGI,TK-10 renal,> 100 µM
same,TGI,HS 578T breast,> 100 µM
same,TGI,SK-MEL-5 melanoma,> 100 µM
same,TGI,A498 renal,> 100 µM
same,TGI,IGROV1 ovarian,> 100 µM
same,TGI,MOLT-4 leukemia,> 100 µM
same,TGI,M14 melanoma,> 100 µM
same,TGI,HOP-62 NSCLC,> 100 µM
same,TGI,HOP-92 NSCLC,> 100 µM
same,TGI,HL-60(TB) leukemia,> 100 µM
same,TGI,A549 NSCLC,> 100 µM
same,TGI,U251 CNS,> 100 µM
same,TGI,NCI-H226 lung,> 100 µM
same,TGI,UACC-62 melanoma,> 100 µM
same,TGI,LOX IMVI melanoma,> 100 µM
same,TGI,EKVX NSCLC,> 100 µM
same,TGI,SF-539 CNS,> 100 µM
